Here are results for 12 substances from publication PMC7617889, “Molecular basis for pH sensing in the KDEL trafficking receptor” (Structure (London, England : 1993), 2024).

The term Kd denotes the constant that tells how readily two partners part at equilibrium. In general, IC50 refers to the concentration that inhibits the measured activity by half.

Where no end group is shown, it is not given here.

Series [1] relates to human KDELR1-GFP D9N in COS-7 cells. Description: Retrieval assay (KDEL receptor redistribution Golgi to ER). It counts as cell-based. The conditions noted are these: KDELR-GFP D9N vs WT, mScarlet ligand. The text has this:
Figure 6 Effect of the water on proton transfer between Asp9 and His12 (A) In the bound state, a proton could be transferred from the histidine (His12/H12) to the aspartate (Asp9/D9) through the crystallographic water. A similar proton transfer can also be made in the apo state. (B) In the apo and bound state, the free energy barrier for the proton transfer (the center of excess charge) from the histidine to aspartate is similar. A larger energy barrier is observed for the proton transfer from aspartate back to the histidine in the bound state. (C) WT, D9A and D9N-mutant KDEL receptors redistribution in COS-7 cells in the absence (-ligand) or presence of K/R/HDEL (mScarlet-xDEL^sec) ligand. TGN46 was used as a Golgi marker. […] (D) The fraction of wild-type and H12A, D9A, and D9N-mutant KDEL receptors localized to the Golgi was measured before (no ligand) and after challenge with different retrieval signals (K/R/HDEL) and is shown as Cummings estimation plots. […]
Retrieval assays were performed as described in Gerondopoulos et al.[11] […] The signal for the KDEL receptor (integrated pixel intensity) was measured in individual cells using FIJI[33] for the Golgi region defined by the TGN46 Golgi marker and for the entire cell in the presence (+) and absence (-) of ligand. The fraction of KDEL receptor in the Golgi apparatus was calculated by dividing the Golgi signal by the total cell signal. […]

In series [2] the target is chicken KDELR. Conditions: cited from earlier work.
The target in series [3] is T1, human KDELR1-GFP D9N (human) (UniProt P24390).
T1 sequence: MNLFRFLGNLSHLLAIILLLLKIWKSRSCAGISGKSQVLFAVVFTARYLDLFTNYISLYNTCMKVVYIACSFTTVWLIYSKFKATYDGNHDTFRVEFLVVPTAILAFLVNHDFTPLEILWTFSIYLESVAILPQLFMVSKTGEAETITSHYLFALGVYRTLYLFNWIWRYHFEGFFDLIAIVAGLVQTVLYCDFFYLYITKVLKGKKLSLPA

Series [4] has as its system HeLa S3 cells (endogenous KDEL receptor). Description: ER secretion assay (western blot of cells and media). It counts as cell-based, human. Conditions: for secretion of endogenous luminal ER chaperones (BiP, PDI, ERP44) caused by the exogenous signal variant: western blot, n = 3, compared with signals having leucine at −1, result in words; for ER retention of the mScarlet reporter (secretion to media): 24 hr expression, western blot of cell extracts and medium, n = 3, result in words. The source says: To further explore if disturbing the water will disrupt the binding, the terminal leucine at the −1 position in the HDEL ligand was alchemically changed to phenylalanine or alanine (Figures 3E and 3F). Phenylalanine also stabilized the two waters in the binding pocket, resulting in a high unbinding free energy. Due to its small size, alanine, however, was unable to stabilize the water, resulting in lower binding free energy. To validate these calculations, we tested the impact of signal variants at the −1 position on both retrieval of the endogenous KDELR from the Golgi to the ER and ER retention of a reporter protein carrying the signal variant in a cellular assay. To measure the role of the −1 position on retrieval of the endogenous KDELR to the ER, cells were transfected with mScarlet-reporters carrying −1 alanine (H/KDEA) or phenylalanine (H/KDEF) variants of either the HDEL or KDEL retrieval signals (Figure 4A). […] Finally, the effect of −1 variant signals on KDELR retrieval of endogenous ER chaperones was also tested. […] This effect was reduced for HDEF or KDEF signals and lost entirely for HDEA or KDEA signals (Figures 4B and 4D).
Figure 4 The terminal amino acid modulates recognition of the ERS by the KDEL receptor (A) Endogenous KDEL receptor redistribution was measured in COS-7 cells in the absence (-ligand) or presence of H/KDEL/F/A (mScarlet-xDEx^sec). TGN46 was used as a Golgi marker. The scale bar is 10 μm. The mean differences for H/KDEL/F/A comparisons against the shared no-ligand control are shown as Cummings estimation plots. The individual data points for the fraction of KDEL receptor fluorescence in the Golgi are plotted on the upper axes. On the lower axes, mean differences are plotted as bootstrap sampling distributions. Each mean difference is depicted as a dot. Each 95% confidence interval is indicated by the ends of the vertical error bars. (B) Cells and media collected from HeLa S3 cells expressing the xDEx variants (mScarlet-K/HDEx^sec) indicated in the figure were western blotted for resident ER chaperons and KDEL receptor.*unspecific bands (C) K/HDEx secretion to media bar graph showing mean ± SEM (n = 3). (D) Bar graph of endogenous ER chaperones secreted after challenged with different retrieval signals as measured by western blot showing mean ± SEM (n = 3).
ER chaperone secretion assays were performed as described in Gerondopoulos et al.[11] Briefly HeLa S3 cells were transfected with mScarlet-ligand (+xDEL ligand) or pcDNA3.1 (− ligand), and allowed to express the respective proteins for 24 hr. The media were TCA precipitated and both cell and media were resuspended and boiled in SDS-PAGE sample buffer. All samples were analysed by Western blotting and signals on films were measured by densitometry in FIJI.[33] Data were plotted as bar graphs in GraphPad Prism.
On the technique in general: Immunoblotting shows a protein as a band on a membrane.

The target in series [5] is TAEKDEL peptide. Conditions: cited from earlier work.
Series [6] deals with TAEHDEL peptide. The conditions noted are these: cited from earlier work.
For series [7], the target named is T2, Gallus gallus (Gg) KDELR2 (Gallus gallus, UniProt Q5ZKX9).
T2 construct: GFP-His fusion (C); made in house; host or cells: Saccharomyces cerevisiae strain BY5460
T2 sequence (Q5ZKX9 1-212): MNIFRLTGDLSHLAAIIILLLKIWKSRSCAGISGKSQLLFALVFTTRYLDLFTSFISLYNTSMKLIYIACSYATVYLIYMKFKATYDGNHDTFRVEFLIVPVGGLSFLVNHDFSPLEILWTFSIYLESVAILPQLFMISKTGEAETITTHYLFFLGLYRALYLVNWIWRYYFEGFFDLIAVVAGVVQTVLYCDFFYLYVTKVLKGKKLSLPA
The series is described as follows: Peptide binding assay, competition of 3H-labelled peptide (filter binding, scintillation counting). Conditions: competition of 3H-labelled peptide at 20 nM, 20 mM MES pH 5.4, 40 mM sodium chloride, 0.01% DDM 0.0005% CHS, 20°C, 10 min, mean, n = 3, read-out: affinity (mean IC50, Figure S3). Here is the method: Binding assays were performed as detailed in Bräuer, P. et al.[19] WT or mutant protein (5 μL) in 20 mM MES pH 5.4, 40 mM Sodium Chloride, 0.01% DDM 0.0005% CHS was incubated with 5 μL of 3H-TAEHDEL (Cambridge Research Biochemicals, UK) at 20 nM at 20°C for 10 min. Using a vacuum manifold, the reaction was then filtered through a 0.22 μm mixed cellulose ester filters (Millipore, USA). Filters were washed with 2 x 0.5 mL cold buffer. The amount of peptide remaining bound was measured using scintillation counting in Ultima Gold (Perkin Elmer). Experiments were performed at least three times, independently, to generate an overall mean and standard deviation (s.d).
Figure S3. Affinity of different cargo signals, related to Figure 5. Mean IC50 values calculated for the TAEHDEF and TAEHDEL peptides competing […] peptide. Error bars are standard deviation of the mean (n = 3).
(1 picture or pasted object on this page, not shown here)

On to HDEL, for which, in series [1], the “retrieval of cargo by the Asp9Asn receptor variant relative to WT” value is ~ 80 % WT levels. Moreover, the equilibrium dissociation constant (Kd) in series [2] is 240 nM. As to “hGHss-mScarlet-H. sapiens BiP639-654 K651H (HDEL^SEC) (from UniProt P11021 639-654)”, in series [3], the ligand-induced redistribution of KDELR1-GFP from the Golgi in COS-7 cells (cell retrieval assay), HDEL ligand worked out at 80 % WT levels.

As for “TAEKDEL [ER-retrieval signal peptide with canonical KDEL, Cambridge peptides]”, the Kd in series [2] was 1940 nM. Consider “HDEA [HDEL ligand with terminal leucine changed to alanine (simulation)]”, for which the “secretion of endogenous luminal ER chaperones (BiP, PDI, ERP44) caused by the exogenous signal variant” value (from here on “secretion … by the exogenous signal variant”) in series [4] is reported as “lost entirely”. Consider “HDEF [HDEL ligand with terminal leucine changed to phenylalanine (simulation)]”, for which, in series [4], the “ER retention of the mScarlet reporter (secretion to media)” value is listed as “retained more efficiently than the alanine variants but less efficiently than when leucine is present” and the “secretion … by the exogenous signal variant” value is recorded as “reduced”.

For KDEL receptor (from UniProt Q5ZKX9), the Kd in series [5] is 1940 nM; in series [6], 240 nM. Consider TAEHDEL [TAEHDEL, reference compound], for which the IC50 in series [7] was found to be 18 µM. For “KDEF^sec: hGHss-mScarlet-H. sapiens BiP639-654 L654F secreted reporter (GPPPTGEEDTAEKDEF; not fully specified (N-terminus))”, in series [4], the “ER retention of the mScarlet reporter (secretion to media)” value is “retained more efficiently than the alanine variants but less efficiently than when leucine is present” and the “secretion … by the exogenous signal variant” value is on record as “reduced”.

As to “RDEL [RDEL variant of the retrieval signal peptide]”, the Kd in series [2] was 2710 nM. On to Lys-Asp-Glu-Leu [KDEL], for which the Kd in series [2] was 1940 nM. “KDEA [KDEL ligand with alanine at the −1 position (simulation)]”: the “secretion … by the exogenous signal variant” value in series [4] is “lost entirely”. On to TAEHDEF [TAEHDEF], for which the IC50 in series [7] worked out at 23 µM.
